Laboratory results from article PMC8776995 (Frontiers in Chemistry, 2022).
Values joined by “and” are separate entries in the source; they are usually repeats but may differ in a detail not shown here. Identical values can stand only once.

Assays:
H1975 cells = assay: CCK-8 antiproliferation assay, H1975; conditions: for Inhibitory efficacy: H1975 cells
Procedure: The compounds were dissolved in DMSO to make a 20 μM stock solution and diluted to the concentration of working solutions with complete growth medium before administration.
Cells were seeded in 96-well plates: 3,000–5,000 cells/well in 100 ul. One day after seeding, the test compounds at concentration between 1.0 and 16.0 μ M or 0.1% DMSO (as control) were added to cells in triplicate. 48 h later, CCK-8 was added and incubated the plate for 1–4 h in the incubator. The absorbance at 450 nm were measured using a microplate reader (Bio-Tek).

PC-9 cells = assay: CCK-8 antiproliferation assay, PC-9; conditions: Homo sapiens, PC-9, 48 h, read-out: IC50 (μM) PC-9
A549 cells = assay: CCK-8 antiproliferation assay, A549; conditions: for Inhibitory efficacy: A549 cells
wild-type EGFR = wild-type EGFR (Homo sapiens, UniProt P00533); assay: EGFR kinase assay (ELISA); conditions: for A450: raw ELISA absorbance
wild-type EGFR, sequence (P00533 25-1210): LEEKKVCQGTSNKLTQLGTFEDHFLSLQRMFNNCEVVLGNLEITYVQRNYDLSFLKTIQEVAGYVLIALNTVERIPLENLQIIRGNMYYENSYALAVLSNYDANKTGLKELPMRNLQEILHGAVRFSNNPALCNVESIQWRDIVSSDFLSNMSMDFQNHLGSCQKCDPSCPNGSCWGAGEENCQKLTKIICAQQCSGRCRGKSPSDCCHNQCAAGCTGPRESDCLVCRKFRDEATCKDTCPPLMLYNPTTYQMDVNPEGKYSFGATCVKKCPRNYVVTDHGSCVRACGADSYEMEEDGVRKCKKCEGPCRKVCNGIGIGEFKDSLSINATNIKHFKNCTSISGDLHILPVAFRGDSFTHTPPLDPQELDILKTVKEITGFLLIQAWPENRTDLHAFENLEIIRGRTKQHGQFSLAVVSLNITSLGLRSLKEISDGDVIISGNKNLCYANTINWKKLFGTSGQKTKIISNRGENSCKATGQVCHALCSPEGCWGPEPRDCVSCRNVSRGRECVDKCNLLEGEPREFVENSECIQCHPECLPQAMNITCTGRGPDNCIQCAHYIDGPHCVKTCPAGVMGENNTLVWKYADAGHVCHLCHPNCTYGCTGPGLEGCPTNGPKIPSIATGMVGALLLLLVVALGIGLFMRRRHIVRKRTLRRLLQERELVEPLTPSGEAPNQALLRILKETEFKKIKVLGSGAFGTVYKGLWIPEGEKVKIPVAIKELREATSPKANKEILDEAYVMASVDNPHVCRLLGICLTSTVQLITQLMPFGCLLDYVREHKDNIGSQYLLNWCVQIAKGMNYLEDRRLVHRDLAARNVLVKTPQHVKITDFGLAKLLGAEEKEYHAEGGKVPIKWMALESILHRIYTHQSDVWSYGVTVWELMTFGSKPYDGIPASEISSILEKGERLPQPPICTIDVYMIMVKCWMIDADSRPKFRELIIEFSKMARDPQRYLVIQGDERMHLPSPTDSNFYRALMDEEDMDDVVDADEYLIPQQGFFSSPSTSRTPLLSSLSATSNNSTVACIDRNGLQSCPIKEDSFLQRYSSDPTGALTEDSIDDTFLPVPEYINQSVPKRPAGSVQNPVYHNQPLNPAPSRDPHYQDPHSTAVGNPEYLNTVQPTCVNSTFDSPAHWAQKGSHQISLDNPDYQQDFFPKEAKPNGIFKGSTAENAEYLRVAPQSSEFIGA

H460 cells = assay: CCK-8 antiproliferation assay, H460; conditions: for Inhibitory efficacy: H460 cells
[1] = 1uM, given as fraction, Repeat 1-3
[2] = 2uM, given as fraction, Repeat 1-3
[3] = 4uM, given as fraction, Repeat 1-3
[4] = 8uM, given as fraction, Repeat 1-3
[5] = 16uM, given as fraction, Repeat 1-3

IC50 (H1975 cells; Homo sapiens, NCI-H1975, 48 h, read-out: IC50 (μM) H1975, CCK-8, 48 h, average ± SD of three independent experiments): 18.3 ± 4.45 µM
IC50 (PC-9 cells): > 100 µM
melting point: 85 to 88 °C
IC50 (A549 cells; Homo sapiens, A549, 48 h, read-out: IC50 (μM) A549, CCK-8, 48 h, average ± SD of three independent experiments): 4.86 ± 0.6 µM
IC50 (wild-type EGFR; IC50 (μM) EGFR, ELISA, 3 μmol/L ATP): 15.5 µM
inhibition at 30 pM (wild-type EGFR; concentration 0.03 nM, one value per replicate column): 13.7%
Inhibition (wild-type EGFR; concentration 0.03 nM, one value per replicate column, 3e-05 µM): 9.36
inhibition at 0.0003 µM (wild-type EGFR; concentration 0.3 nM, one value per replicate column): 14.2%
Inhibition (wild-type EGFR; concentration 0.3 nM, one value per replicate column, 0.0003 µM): 12.4795
inhibition at 0.003 µM (wild-type EGFR; concentration 3 nM, one value per replicate column): 14.4%
Inhibition (wild-type EGFR; concentration 3 nM, one value per replicate column, 0.003 µM): 19.0476
inhibition at 0.03 µM (wild-type EGFR; concentration 30 nM, one value per replicate column): 18.2%
Inhibition (wild-type EGFR; concentration 30 nM, one value per replicate column, 0.03 µM): 26.7652
inhibition at 0.3 µM (wild-type EGFR; concentration 300 nM, one value per replicate column): 32.9%
Inhibition (wild-type EGFR; concentration 300 nM, one value per replicate column, 0.3 µM): 32.1839
inhibition at 3 µM (wild-type EGFR; concentration 3000 nM, one value per replicate column): 34.7%
Inhibition (wild-type EGFR; concentration 3000 nM, one value per replicate column, 3 µM): 34.8112
inhibition at 30 µM (wild-type EGFR; concentration 30000 nM, one value per replicate column): 60.1%
Inhibition (wild-type EGFR; concentration 30000 nM, one value per replicate column, 30 µM): 58.1281
A450 (wild-type EGFR; concentration 0.0001 nM): 0.831 and 0.824
A450 (wild-type EGFR; concentration 0.03 nM): 0.745 and 0.767
A450 (wild-type EGFR; concentration 0.3 nM): 0.742 and 0.748
A450 (wild-type EGFR; concentration 3 nM): 0.741 and 0.708
A450 (wild-type EGFR; concentration 30 nM): 0.717 and 0.661
A450 (wild-type EGFR; concentration 300 nM): 0.625 and 0.628
A450 (wild-type EGFR; concentration 3000 nM): 0.614 and 0.612
A450 (wild-type EGFR; concentration 30000 nM): 0.455 and 0.47
IC50 (H460 cells; Homo sapiens, NCI-H460, 48 h, read-out: IC50 (μM) H460, CCK-8, 48 h, average ± SD of three independent experiments): 3.18 ± 0.11 µM
Structure (SMILES): COCCOc1cc2ncnc(Nc3cccc(-c4cn(-c5ccc(OC)cc5OC)nn4)c3)c2cc1OCCOC [e17, [6,7-Bis-(2-methoxy-ethoxy)-quinazolin-4-yl]-{3-[1-(2,4-dimethoxy-phenyl)-1H-[1,2,3]triazol-4-yl]-phenyl}-amine]
Inhibitory efficacy (H1975 cells; [1]): 0.195 and 0.1523
Inhibitory efficacy (H1975 cells; [2]): 0.402 and 0.2557
Inhibitory efficacy (H1975 cells; [3]): 0.3137 and 0.2571
Inhibitory efficacy (H1975 cells; [4]): 0.5 and 0.471
Inhibitory efficacy (H1975 cells; [5]): 0.4476 and 0.4006
inhibition at 1 µM (H1975 cells; Homo sapiens, NCI-H1975, read-out: Inhibitory efficacy, H1975 cells, 1uM, given as fraction, Repeat 1-3): 23.1%
inhibition at 2 µM (H1975 cells; Homo sapiens, NCI-H1975, read-out: Inhibitory efficacy, H1975 cells, 2uM, given as fraction, Repeat 1-3): 33.3%
inhibition at 4 µM (H1975 cells; Homo sapiens, NCI-H1975, read-out: Inhibitory efficacy, H1975 cells, 4uM, given as fraction, Repeat 1-3): 29%
inhibition at 8 µM (H1975 cells; Homo sapiens, NCI-H1975, read-out: Inhibitory efficacy, H1975 cells, 8uM, given as fraction, Repeat 1-3): 52.8%
inhibition at 16 µM (H1975 cells; Homo sapiens, NCI-H1975, read-out: Inhibitory efficacy, H1975 cells, 16uM, given as fraction, Repeat 1-3): 47.1%
Inhibitory efficacy (A549 cells; [1]): 0.282 and 0.1573
Inhibitory efficacy (A549 cells; [2]): 0.4285 and 0.3755
Inhibitory efficacy (A549 cells; [3]): 0.5452 and 0.5691
Inhibitory efficacy (A549 cells; [4]): 0.5949 and 0.5372
Inhibitory efficacy (A549 cells; [5]): 0.5916 and 0.6049
inhibition at 1 µM (A549 cells; Homo sapiens, A549, read-out: Inhibitory efficacy, A549 cells, 1uM, given as fraction, Repeat 1-3): 15.3%
inhibition at 2 µM (A549 cells; Homo sapiens, A549, read-out: Inhibitory efficacy, A549 cells, 2uM, given as fraction, Repeat 1-3): 40.1%
inhibition at 4 µM (A549 cells; Homo sapiens, A549, read-out: Inhibitory efficacy, A549 cells, 4uM, given as fraction, Repeat 1-3): 55.6%
inhibition at 8 µM (A549 cells; Homo sapiens, A549, read-out: Inhibitory efficacy, A549 cells, 8uM, given as fraction, Repeat 1-3): 58.9%
inhibition at 16 µM (A549 cells; Homo sapiens, A549, read-out: Inhibitory efficacy, A549 cells, 16uM, given as fraction, Repeat 1-3): 65%
Inhibitory efficacy (H460 cells; [2]): 0.3561 and 0.3949
Inhibitory efficacy (H460 cells; [3]): 0.5495 and 0.6263
Inhibitory efficacy (H460 cells; [4]): 0.7733 and 0.7776
Inhibitory efficacy (H460 cells; [5]): 0.8649 and 0.8113
inhibition at 2 µM (H460 cells; Homo sapiens, NCI-H460, read-out: Inhibitory efficacy, H460 cells, 2uM, given as fraction, Repeat 1-3): 29.5%
inhibition at 4 µM (H460 cells; Homo sapiens, NCI-H460, read-out: Inhibitory efficacy, H460 cells, 4uM, given as fraction, Repeat 1-3): 60.9%
inhibition at 8 µM (H460 cells; Homo sapiens, NCI-H460, read-out: Inhibitory efficacy, H460 cells, 8uM, given as fraction, Repeat 1-3): 77.7%
inhibition at 16 µM (H460 cells; Homo sapiens, NCI-H460, read-out: Inhibitory efficacy, H460 cells, 16uM, given as fraction, Repeat 1-3): 81.3%
